In ChEMBL document CHEMBL5303573, “Mapping human microbiome drug metabolism by gut bacteria and their genes” (Nature, 2019):

Columns and labels:
[1] = The drug is tested on Bacteroides cellulosilyticus strain: DSM14838 for biotransformation. The drug concentrations were measured before and after a 12-h incubation by liquid-chromatography-coupled mass spectrometry (LC–MS); conditions: 2 µM
[2] = The drug is tested on Bacteroides sp. WH2 strain: WH2 for biotransformation. The drug concentrations were measured before and after a 12-h incubation by liquid-chromatography-coupled mass spectrometry (LC–MS); conditions: bacteroides sp. wh2, 12 h, 2 µM
[3] = bacteroides intestinalis, 12 h, 2 µM
Description: The drug is tested on Bacteroides intestinalis strain: DSM17393 for biotransformation. The drug concentrations were measured before and after a 12-h incubation by liquid-chromatography-coupled mass spectrometry (LC–MS)

[4] = The drug is tested on Providencia stuartii strain: ATCC25827 for biotransformation. The drug concentrations were measured before and after a 12-h incubation by liquid-chromatography-coupled mass spectrometry (LC–MS); conditions: 2 µM
[5] = The drug is tested on Bacteroides xylanisolvens strain: DSM18836 for biotransformation. The drug concentrations were measured before and after a 12-h incubation by liquid-chromatography-coupled mass spectrometry (LC–MS); conditions: 2 µM
[6] = The drug is tested on Bacteroides ovatus strain: ATCC8483 for biotransformation. The drug concentrations were measured before and after a 12-h incubation by liquid-chromatography-coupled mass spectrometry (LC–MS); conditions: 2 µM
[7] = The drug is tested on Coprococcus comes strain: ATCC27758 for biotransformation. The drug concentrations were measured before and after a 12-h incubation by liquid-chromatography-coupled mass spectrometry (LC–MS); assay type: ADME; design: dose 2 uM, timepoint 0 vs 12 hours; conditions: 2 µM
[8] = The drug is tested on Bifidobacterium ruminantium strain: fecal isolate for biotransformation. The drug concentrations were measured before and after a 12-h incubation by liquid-chromatography-coupled mass spectrometry (LC–MS); conditions: 2 µM
[9] = bifidobacterium adolescentis, 12 h, 2 µM
Description: The drug is tested on Bifidobacterium adolescentis strain: ATCC 15703 for biotransformation. The drug concentrations were measured before and after a 12-h incubation by liquid-chromatography-coupled mass spectrometry (LC–MS)

[10] = The drug is tested on Ruminococcus gnavus strain: ATCC29149 for biotransformation. The drug concentrations were measured before and after a 12-h incubation by liquid-chromatography-coupled mass spectrometry (LC–MS); conditions: mediterraneibacter gnavus, 2 µM
[11] = The drug is tested on Enterobacter cancerogenus strain: ATCC35316 for biotransformation. The drug concentrations were measured before and after a 12-h incubation by liquid-chromatography-coupled mass spectrometry (LC–MS); conditions: 2 µM
[12] = The drug is tested on Eubacterium ventriosum strain: ATCC27560 for biotransformation. The drug concentrations were measured before and after a 12-h incubation by liquid-chromatography-coupled mass spectrometry (LC–MS); assay type: ADME; design: dose 2 uM, timepoint 0 vs 12 hours; conditions: 2 µM
[13] = The drug is tested on Clostridium symbiosum strain: ATCC14940 for biotransformation. The drug concentrations were measured before and after a 12-h incubation by liquid-chromatography-coupled mass spectrometry (LC–MS); conditions: 2 µM
[14] = The drug is tested on Dorea formicigenerans strain: ATCC27755 for biotransformation. The drug concentrations were measured before and after a 12-h incubation by liquid-chromatography-coupled mass spectrometry (LC–MS); conditions: 2 µM
[15] = limosilactobacillus reuteri cf48-3a, 12 h, 2 µM
Description: The drug is tested on Lactobacillus reuteri CF48-3A strain: BEI HM-102 for biotransformation. The drug concentrations were measured before and after a 12-h incubation by liquid-chromatography-coupled mass spectrometry (LC–MS)

[16] = enterocloster bolteae, 12 h, 2 µM
Description: The drug is tested on Clostridium bolteae strain: ATCCBAA-613 for biotransformation. The drug concentrations were measured before and after a 12-h incubation by liquid-chromatography-coupled mass spectrometry (LC–MS)

[17] = The drug is tested on Blautia luti strain: DSM14534 for biotransformation. The drug concentrations were measured before and after a 12-h incubation by liquid-chromatography-coupled mass spectrometry (LC–MS); assay type: ADME; design: dose 2 uM, timepoint 0 vs 12 hours; conditions: 2 µM
[18] = segatella copri, 12 h, 2 µM
Description: The drug is tested on Prevotella copri strain: DSM18205 for biotransformation. The drug concentrations were measured before and after a 12-h incubation by liquid-chromatography-coupled mass spectrometry (LC–MS)

[19] = The drug is tested on Eubacterium rectale strain: ATCC33656 for biotransformation. The drug concentrations were measured before and after a 12-h incubation by liquid-chromatography-coupled mass spectrometry (LC–MS); conditions: agathobacter rectalis, 2 µM

SMILES | Bacterial Biotransformation [1] | Bacterial Biotransformation [2] | Bacterial Biotransformation [3] | Bacterial Biotransformation [4] | Bacterial Biotransformation [5] | Bacterial Biotransformation [6] | Bacterial Biotransformation [7] | Bacterial Biotransformation [8] | Bacterial Biotransformation [9] | Bacterial Biotransformation [10] | Bacterial Biotransformation [11] | Bacterial Biotransformation [12] | Bacterial Biotransformation [13] | Bacterial Biotransformation [14] | Bacterial Biotransformation [15] | Bacterial Biotransformation [16] | Bacterial Biotransformation [17] | Bacterial Biotransformation [18] | Bacterial Biotransformation [19]
CCCc1nc2c(C)cc(-c3nc4ccccc4n3C)cc2n1Cc1ccc(-c2ccccc2C(=O)O)cc1 | Compound metabolized | Compound metabolized | Compound NOT metabolized | Compound NOT metabolized | Compound metabolized | Compound metabolized | Compound NOT metabolized | Compound NOT metabolized | Compound NOT metabolized | Compound NOT metabolized | Compound NOT metabolized | Compound NOT metabolized | Compound NOT metabolized | Compound NOT metabolized | – | – | – | – | –
CC(O)(CS(=O)(=O)c1ccc(F)cc1)C(=O)Nc1ccc(C#N)c(C(F)(F)F)c1 (stereo not drawn) [BICALUTAMIDE] | Compound NOT metabolized | Compound NOT metabolized | Compound NOT metabolized | Compound NOT metabolized | Compound NOT metabolized | Compound NOT metabolized | Compound NOT metabolized | – | Compound NOT metabolized | Compound NOT metabolized | Compound metabolized | Compound NOT metabolized | Compound NOT metabolized | Compound NOT metabolized | Compound NOT metabolized | Compound NOT metabolized | Compound NOT metabolized | Compound NOT metabolized | Compound NOT metabolized
CC(C)(C)N.CCC[C@H](N[C@@H](C)C(=O)N1[C@H](C(=O)O)C[C@@H]2CCCC[C@@H]21)C(=O)OCC [PERINDOPRIL ERBUMINE] | Compound NOT metabolized | Compound NOT metabolized | Compound NOT metabolized | Compound NOT metabolized | Compound NOT metabolized | Compound NOT metabolized | Compound NOT metabolized | Compound NOT metabolized | Compound NOT metabolized | Compound NOT metabolized | – | Compound NOT metabolized | Compound NOT metabolized | Compound NOT metabolized | Compound NOT metabolized | Compound NOT metabolized | Compound NOT metabolized | – | –
CCOc1ccc(NC(C)=O)cc1 [PHENACETIN] | Compound NOT metabolized | Compound NOT metabolized | Compound NOT metabolized | – | Compound NOT metabolized | Compound NOT metabolized | Compound NOT metabolized | Compound NOT metabolized | Compound NOT metabolized | Compound NOT metabolized | – | Compound NOT metabolized | Compound NOT metabolized | Compound NOT metabolized | Compound NOT metabolized | Compound NOT metabolized | Compound NOT metabolized | Compound NOT metabolized | Compound NOT metabolized
CC(CN1c2ccccc2Sc2ccccc21)N(C)C (stereo not drawn) [PROMETHAZINE] | Compound NOT metabolized | Compound NOT metabolized | Compound NOT metabolized | Compound NOT metabolized | Compound NOT metabolized | Compound NOT metabolized | Compound NOT metabolized | – | Compound NOT metabolized | Compound NOT metabolized | – | Compound NOT metabolized | Compound NOT metabolized | Compound NOT metabolized | Compound NOT metabolized | Compound NOT metabolized | Compound NOT metabolized | Compound NOT metabolized | Compound NOT metabolized
CN(CCOc1ccc(CC2SC(=O)NC2=O)cc1)c1ccccn1.O=C(O)/C=C\C(=O)O (stereo not drawn) [ROSIGLITAZONE MALEATE] | Compound NOT metabolized | Compound NOT metabolized | Compound NOT metabolized | Compound NOT metabolized | Compound NOT metabolized | Compound NOT metabolized | Compound NOT metabolized | – | Compound NOT metabolized | Compound NOT metabolized | – | Compound NOT metabolized | Compound NOT metabolized | Compound NOT metabolized | Compound NOT metabolized | Compound NOT metabolized | Compound NOT metabolized | Compound NOT metabolized | –
Cc1ccc(S(=O)(=O)NC(=O)NN2CCCCCC2)cc1 [TOLAZAMIDE] | Compound metabolized | Compound NOT metabolized | Compound NOT metabolized | – | Compound metabolized | Compound metabolized | Compound NOT metabolized | Compound metabolized | Compound NOT metabolized | Compound NOT metabolized | Compound NOT metabolized | Compound NOT metabolized | Compound NOT metabolized | Compound NOT metabolized | – | Compound NOT metabolized | Compound NOT metabolized | Compound metabolized | –
CC(CN(C)C)CN1c2ccccc2CCc2ccccc21.O=C(O)/C=C\C(=O)O (stereo not drawn) [TRIMIPRAMINE MALEATE] | – | Compound NOT metabolized | Compound NOT metabolized | Compound NOT metabolized | Compound NOT metabolized | Compound NOT metabolized | Compound NOT metabolized | Compound NOT metabolized | Compound NOT metabolized | Compound NOT metabolized | Compound NOT metabolized | Compound NOT metabolized | Compound NOT metabolized | Compound NOT metabolized | Compound NOT metabolized | Compound NOT metabolized | Compound NOT metabolized | – | Compound NOT metabolized
CCOC(=O)C1=C[C@]2(CC)CCCN3CCc4c(n1c1ccccc41)[C@@H]32 [VINPOCETINE] | Compound NOT metabolized | Compound NOT metabolized | Compound NOT metabolized | Compound NOT metabolized | – | Compound NOT metabolized | Compound NOT metabolized | Compound NOT metabolized | Compound NOT metabolized | Compound NOT metabolized | – | Compound NOT metabolized | Compound NOT metabolized | Compound NOT metabolized | Compound NOT metabolized | Compound NOT metabolized | Compound NOT metabolized | Compound NOT metabolized | Compound NOT metabolized
